In brackets after ≈: the same amount, converted by molar mass.
How the values were obtained:
[1] = tested on: Pseudomonas aeruginosa; assay: antibacterial activity, minimum inhibition concentration in liquid culture; type: cell-based; details: LB medium, overnight at 37° C., turbidity, read-out: MIC(nM) of bacteria culture (Pseudomonas aeruginosa)
Experimental: A dilution series comprising the concentrations 500, 100, 50, 10 and 0 μmol 1^−1 of the individual compounds in LB medium is introduced into 5 culture microtubes in a volume of 0,5 ml. The tubes were inoculated with 10 μl of an overnight culture of E. coli K12 and shaken overnight at 37° C. The growth of the bacteria was assessed on the basis of the turbidity of the medium. The minimum concentration causing inhibition of bacterial growth was determined (minimum inhibition concentration MIC)
The antibacterial activity of P. aeruginosa was determined in the same manner.

[2] = tested on: Solanum; assay: herbicidal activity, Hydro Vorauflauf; type: in vivo
Experimental: (§1) The determination of herbicidal activity is performed according to standard procedure. Again the compounds listed on page 9 are tested.

[3] = tested on: Echinochloa; assay: herbicidal activity, Hydro Vorauflauf; type: in vivo
Experimental: as §1

[4] = tested on: Reis; assay: herbicidal activity, Hydro Vorauflauf; type: in vivo
Experimental: as §1

[5] = tested on: Lepidium; assay: herbicidal activity, Hydro Vorauflauf; type: in vivo
Experimental: as §1

[6] = tested on: Xanthium strumarium; assay: herbicidal activity, Erde Vorauflauf; type: in vivo
Experimental: as §1

[7] = tested on: Sinapis arvensis; assay: herbicidal activity, Erde Vorauflauf; type: in vivo; details: Mutarda arvensis
Experimental: as §1

[8] = tested on: Galium aperine; assay: herbicidal activity, Erde Vorauflauf; type: in vivo
Experimental: as §1

[9] = tested on: Zea mays; assay: herbicidal activity, Erde Vorauflauf; type: in vivo
Experimental: as §1

[10] = tested on: Beta vulgaris; assay: herbicidal activity, Erde Vorauflauf; type: in vivo
Experimental: as §1

[11] = tested on: Setaria viridis; assay: herbicidal activity, Erde Vorauflauf; type: in vivo
Experimental: as §1

[12] = tested on: Avena fatua; assay: herbicidal activity, Erde Vorauflauf; type: in vivo
Experimental: as §1

[13] = tested on: Amaranthus retroflexus; assay: herbicidal activity, Erde Vorauflauf; type: in vivo
Experimental: as §1

[14] = tested on: Abutilon theophrasti; assay: herbicidal activity, Erde Vorauflauf; type: in vivo
Experimental: as §1

[15] = tested on: Alopecurus myosuroides; assay: herbicidal activity, Erde Vorauflauf; type: in vivo
Experimental: as §1

[16] = tested on: Cyperus esculentus; assay: herbicidal activity, Erde Vorauflauf; type: in vivo
Experimental: as §1

[17] = tested on: Xanthium strumarium; assay: herbicidal activity, Erde Nachauflauf; type: in vivo
Experimental: as §1

[18] = tested on: Sinapis arvensis; assay: herbicidal activity, Erde Nachauflauf; type: in vivo; details: Mutarda arvensis
Experimental: as §1

[19] = tested on: Galium aperine; assay: herbicidal activity, Erde Nachauflauf; type: in vivo
Experimental: as §1

[20] = tested on: Zea mays; assay: herbicidal activity, Erde Nachauflauf; type: in vivo
Experimental: as §1

[21] = tested on: Beta vulgaris; assay: herbicidal activity, Erde Nachauflauf; type: in vivo
Experimental: as §1

[22] = tested on: Setaria viridis; assay: herbicidal activity, Erde Nachauflauf; type: in vivo
Experimental: as §1

[23] = tested on: Avena fatua; assay: herbicidal activity, Erde Nachauflauf; type: in vivo
Experimental: as §1

[24] = tested on: Amaranthus retroflexus; assay: herbicidal activity, Erde Nachauflauf; type: in vivo
Experimental: as §1

[25] = tested on: Abutilon theophrasti; assay: herbicidal activity, Erde Nachauflauf; type: in vivo
Experimental: as §1

[26] = tested on: Alopecurus myosuroides; assay: herbicidal activity, Erde Nachauflauf; type: in vivo
Experimental: as §1

[27] = tested on: Cyperus esculentus; assay: herbicidal activity, Erde Nachauflauf; type: in vivo
Experimental: as §1

[28] = tested on: Plasmodium falciparum; assay: antimalaria activity on in vitro cultures, [3H]-hypoxanthine incorporation; type: cell-based; details: 72 h, inhibition of [3H]-hypoxanthine incorporation, 48 + 24 hours, read-out: IC50(nM) of malaria culture (Plasmodium falciparum)
Experimental: The antimalaria activity of the compounds listed on page 9 was determined on in vitro cultures of the malaria pathogen Plasmodium falciparum. The depressions of a 96-well microtitre plate were charged with in each case 200 μl of an asynchroneous Plasmodium falciparum culture at a parasitaemia of 0,4% and haematokrit of 2%. A serial dilution series of the compounds in triple steps between concentrations of 100 to 0,14 μmol 1^−1 was then prepared. The plates were incubated at 37° C., 3% CO2 and 5% O2 over a period of 48 hours. 30 μl medium supplemented with 27 μCi ml^−1 [^3H]-hypoxanthine were then added to each well. After incubation for 24 hours the parasites were harvested by filtration on a glass fibre filter and the radioactivity which had been incorporated was measured. The inhibition of the growth of parasites was measured as the percentage inhibition of the incorporation of tritium. Inhibition of the growth of the parasites has been determined as percentage inhibition of incorporation of tritium based on a comparison without the substance. The half-maximum inhibitory concentration (IC50) of the substance was determined by extrapolation of the values.

[29] = target: T1, DOXP reductoisomerase of Escherichia coli (UniProt P56139); assay: inhibition of recombinant DOXP reductoisomerase (NADPH oxidation); type: biochemical; details: 1 mM DOXP, 0,3 mM NADPH, pH 7,5; read-out: IC50(nM) of DOXP reductoisomerase from Helicobacter pilori
T1 sequence (P56139 1-368): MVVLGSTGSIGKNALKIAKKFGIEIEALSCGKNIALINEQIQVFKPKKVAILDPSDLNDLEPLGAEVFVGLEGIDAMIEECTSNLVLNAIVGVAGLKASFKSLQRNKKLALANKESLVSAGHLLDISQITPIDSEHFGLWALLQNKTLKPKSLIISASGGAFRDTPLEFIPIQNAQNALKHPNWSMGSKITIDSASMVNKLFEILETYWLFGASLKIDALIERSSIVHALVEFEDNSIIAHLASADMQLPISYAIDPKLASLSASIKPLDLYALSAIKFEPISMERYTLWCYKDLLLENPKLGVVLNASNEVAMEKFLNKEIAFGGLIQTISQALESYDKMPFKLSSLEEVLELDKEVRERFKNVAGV

SMILES: CC(C)N(C)CCCN1OCCC1=O [Compound 7]
- MIC [1]: 9000 nM (≈ 1.8 µg/mL)
- pest or weed control at 4000 g/ha ([2]; 4000 Gramm/Hektar): 30%
- pest or weed control at 4000 g/ha ([3]; 4000 Gramm/Hektar): 40%
- pest or weed control at 4000 g/ha ([4]; 4000 Gramm/Hektar): 30%
- pest or weed control at 4000 g/ha ([5]; 4000 Gramm/Hektar): 0%
- pest or weed control at 2000 g/ha ([6]; 2000 Gramm/Hektar): 0%
- pest or weed control at 2000 g/ha ([7]; 2000 Gramm/Hektar): 30%
- pest or weed control at 2000 g/ha ([8]; 2000 Gramm/Hektar): 0%
- plant injury at 2000 g/ha ([9]; 2000 Gramm/Hektar): 30%
- plant injury at 2000 g/ha ([10]; 2000 Gramm/Hektar): 70%
- pest or weed control at 2000 g/ha ([11]; 2000 Gramm/Hektar): 0%
- pest or weed control at 2000 g/ha ([12]; 2000 Gramm/Hektar): 30%
- pest or weed control at 2000 g/ha ([13]; 2000 Gramm/Hektar): 20%
- pest or weed control at 2000 g/ha ([14]; 2000 Gramm/Hektar): 0%
- pest or weed control at 2000 g/ha ([15]; 2000 Gramm/Hektar): 30%
- pest or weed control at 2000 g/ha ([16]; 2000 Gramm/Hektar): 0%
- pest or weed control at 2000 g/ha ([17]; 2000 Gramm/Hektar): 90%
- pest or weed control at 2000 g/ha ([18]; 2000 Gramm/Hektar): 80%
- pest or weed control at 2000 g/ha ([19]; 2000 Gramm/Hektar): 95%
- plant injury at 2000 g/ha ([20]; 2000 Gramm/Hektar): 70%
- plant injury at 2000 g/ha ([21]; 2000 Gramm/Hektar): 70%
- pest or weed control at 2000 g/ha ([22]; 2000 Gramm/Hektar): 90%
- pest or weed control at 2000 g/ha ([23]; 2000 Gramm/Hektar): 80%
- pest or weed control at 2000 g/ha ([24]; 2000 Gramm/Hektar): 50%
- pest or weed control at 2000 g/ha ([25]; 2000 Gramm/Hektar): 50%
- pest or weed control at 2000 g/ha ([26]; 2000 Gramm/Hektar): 80%
- pest or weed control at 2000 g/ha ([27]; 2000 Gramm/Hektar): 0%
- IC50 [28]: 400 nM
- IC50 [29]: 18 nM

SMILES: CN(C)CC(=O)CN1OCCC(C)(C)C1=O [Compound 8]
- MIC [1]: 7300 nM (≈ 1.67 µg/mL)
- pest or weed control at 2000 g/ha ([2]; 2000 Gramm/Hektar): 30%
- pest or weed control at 2000 g/ha ([3]; 2000 Gramm/Hektar): 40%
- pest or weed control at 2000 g/ha ([4]; 2000 Gramm/Hektar): 0%
- pest or weed control at 2000 g/ha ([5]; 2000 Gramm/Hektar): 30%
- pest or weed control at 1000 g/ha ([6]; 1000 Gramm/Hektar): 0%
- pest or weed control at 1000 g/ha ([7]; 1000 Gramm/Hektar): 30%
- pest or weed control at 1000 g/ha ([8]; 1000 Gramm/Hektar): 0%
- plant injury at 1000 g/ha ([9]; 1000 Gramm/Hektar): 30%
- plant injury at 1000 g/ha ([10]; 1000 Gramm/Hektar): 30%
- pest or weed control at 1000 g/ha ([11]; 1000 Gramm/Hektar): 0%
- pest or weed control at 1000 g/ha ([12]; 1000 Gramm/Hektar): 30%
- pest or weed control at 1000 g/ha ([13]; 1000 Gramm/Hektar): 20%
- pest or weed control at 1000 g/ha ([14]; 1000 Gramm/Hektar): 0%
- pest or weed control at 1000 g/ha ([15]; 1000 Gramm/Hektar): 30%
- pest or weed control at 1000 g/ha ([16]; 1000 Gramm/Hektar): 0%
- pest or weed control at 1000 g/ha ([17]; 1000 Gramm/Hektar): 90%
- pest or weed control at 1000 g/ha ([18]; 1000 Gramm/Hektar): 90%
- pest or weed control at 1000 g/ha ([19]; 1000 Gramm/Hektar): 70%
- plant injury at 1000 g/ha ([20]; 1000 Gramm/Hektar): 70%
- plant injury at 1000 g/ha ([21]; 1000 Gramm/Hektar): 40%
- pest or weed control at 1000 g/ha ([22]; 1000 Gramm/Hektar): 90%
- pest or weed control at 1000 g/ha ([23]; 1000 Gramm/Hektar): 80%
- pest or weed control at 1000 g/ha ([24]; 1000 Gramm/Hektar): 50%
- pest or weed control at 1000 g/ha ([25]; 1000 Gramm/Hektar): 50%
- pest or weed control at 1000 g/ha ([26]; 1000 Gramm/Hektar): 70%
- pest or weed control at 1000 g/ha ([27]; 1000 Gramm/Hektar): 0%
- IC50 [28]: 700 nM
- IC50 [29]: 24 nM
